Laboratory results published in patent US12350270B2, “Antimalarial agents” (Merck Sharp & Dohme LLC, priority 2019, dated 2025).

Test system: parasites (ring stage, in human red blood cell culture)
Experiment: Parasite LDH growth assay (antiparasite potency, Parasite Assay)
Format: cell-based, Plasmodium falciparum
Details: 0.7% rings, 2% haematocrit, 72 hours at 37° C., LDH readout of parasite growth
Procedure, shortened: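 Growth was read by an LDH assay after a freeze–thaw cycle (−80 °C overnight, 4 h thaw at RT). Before that, parasites grew with compound for 72 h at 37 °C under gassed, humidified conditions. The input was a ring-stage culture adjusted to 0.7% parasitemia and 2% haematocrit in serum (5%)/albumax (0.5%)-supplemented RPMI-Hepes.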

SMILES | EC50 [nM]
CCC1(CC)CC(=O)N([C@@H]2CCOc3ccc(C(=O)NC4c5ccccc5OC4(C)C)cc32)C(=N)N1 (single isomer, unassigned) [Example 133A] | 1.4
CCC1(CC)CC(=O)N([C@@H]2CCOc3ccc(C(=O)NC4c5c(OC)cccc5OCC4(C)O)cc32)C(=N)N1 (single isomer, unassigned) [Example 259B] | 24.2
CCC1(CC)CC(=O)N([C@H]2c3cc(C(=O)NC4c5ccccc5CC4(C)O)ccc3OC2(C)COC)C(=N)N1 (stereo partly drawn) [Example 76B, (2S,3S)-3-(4,4-diethyl-2-imino-6-oxotetrahydropyrimidin-1(2H)-yl)-N-(2-hydroxy-2-methyl-2,3-dihydro-1H-inden-1-yl)-2-(methoxymethyl)-2-methyl-2,3-dihydrobenzofuran-5-carboxamide] | 1.1
CCC1C[C@@H](N2C(=N)NC(CC)(CC)CC2=O)c2cc(C(=O)NC3c4ccccc4OC(C)(C)C3O)ccc2O1 (single isomer, unassigned) [Example 13A] | 0.8
CC1(C)CC(=O)N([C@@H]2CC(C)(C)Oc3ccc(C(=O)N[C@@H]4c5ccccc5CC4(C)O)cc32)C(=N)N1 (single isomer, unassigned) [Example 54B] | 160
CCC1(CC)CC(=O)N([C@@H]2CCOc3ccc(C(=O)NC4c5ccccc5OC4(C)CO)cc32)C(=N)N1 (single isomer, unassigned) [Example 176D] | 114
CCC1(CC)CC(=O)N([C@@H]2CC(C)(C)Oc3ccc(C(=O)N[C@@H]4c5cc(F)ccc5OC(C)(C)[C@H]4O)cc32)C(=N)N1 [Example 46A, (R)-4-(4,4-diethyl-2-imino-6-oxotetrahydropyrimidin-1(2H)-yl)-N-((3S,4R)-6-fluoro-3-hydroxy-2,2-dimethylchroman-4-yl)-2,2-dimethylchromane-6-carboxamide] | 130
CCC1(CC)CC(=O)N([C@@H]2CCOc3ccc(C(=O)NC4c5ccccc5OC4(C)COC)cc32)C(=N)N1 (single isomer, unassigned) [Example 64A] | 12
CC1(C)CC(=O)N([C@@H]2CCOc3ccc(C(=O)N[C@H]4CC(C)(C)Oc5ccccc54)cc32)C(=N)N1 [Example 106, (4R)-N-[(4S)-2,2-dimethylchroman-4-yl]-4-(2-imino-4,4-dimethyl-6-oxo-hexahydropyrimidin-1-yl)chromane-6-carboxamide] | 6.6

Same assay, conditions: Plasmodium falciparum, Erythrocyte, 72 h, 0.7% rings, 2% haematocrit, 72 hours at 37° C., LDH readout of parasite growth

SMILES | EC50 [nM]
CCC1(CC)CC(=O)N([C@@H]2CCc3ccc(C(=O)N[C@@H]4c5ccccc5C[C@H]4O)cc32)C(=N)N1 [Example 85, (3R)-3-(4,4-diethyl-2-imino-6-oxo-hexahydropyrimidin-1-yl)-N-[(1R,2R)-2-hydroxyindan-1-yl]indane-5-carboxamide] | 10.7
CCC1(CC)CC(=O)N([C@H]2c3cc(C(=O)N[C@@H]4c5ccccc5C[C@@]4(C)O)ccc3OC[C@H]2COC)C(=N)N1 [Example 235, (3R,4R)-4-(4,4-diethyl-2-imino-6-oxo-hexahydropyrimidin-1-yl)-N-[(1R,2R)-2-hydroxy-2-methyl-indan-1-yl]-3-(methoxymethyl)chromane-6-carboxamide] | 0.7
CCC1(CC)CC(=O)N([C@@H]2CCOc3c(Cl)cc(C(=O)N[C@H]4CC(C)(C)Oc5ccccc54)cc32)C(=N)N1 [Example 26A, (R)-8-chloro-4-(4,4-diethyl-2-imino-6-oxotetrahydropyrimidin-1(2H)-yl)-N-((S)-2,2-dimethylchroman-4-yl)chromane-6-carboxamide] | 1.3
CC1(C)CC(=O)N([C@@H]2CCOc3ccc(C(=O)N[C@@H]4c5cc(F)ccc5OC[C@H]4O)cc32)C(=N)N1 [Example 112, (4R)-N-[(3S,4R)-6-fluoro-3-hydroxy-chroman-4-yl]-4-(2-imino-4,4-dimethyl-6-oxo-hexahydropyrimidin-1-yl)chromane-6-carboxamide] | 11.4
CCC1(CC)CC(=O)N([C@@H]2CCCc3ccc(C(=O)N[C@H]4CC(C)(C)Oc5ccccc54)cc32)C(=N)N1 [Example 156, (4R)-4-(4,4-diethyl-2-imino-6-oxo-hexahydropyrimidin-1-yl)-N-[(4S)-2,2-dimethylchroman-4-yl]tetralin-6-carboxamide] | 1.1
CCC1(CC)C[C@@H](N2C(=N)NC(C)(C)CC2=O)c2cc(C(=O)N[C@@H]3c4ccccc4OC[C@H]3O)ccc2O1 [Example 52A, (R)-2,2-diethyl-N-((3S,4R)-3-hydroxychroman-4-yl)-4-(2-imino-4,4-dimethyl-6-oxotetrahydropyrimidin-1(2H)-yl)chromane-6-carboxamide] | 14.4
CCC1(CC)CC(=O)N([C@H]2c3cc(C(=O)N[C@@H]4c5ccccc5OC[C@]4(C)O)ccc3OC[C@@H]2OC)C(=N)N1 [Example 253, (3R,4S)-4-(4,4-diethyl-2-imino-6-oxo-hexahydropyrimidin-1-yl)-N-[(3R,4R)-3-hydroxy-3-methyl-chroman-4-yl]-3-methoxy-chromane-6-carboxamide] | 4.3
CC1(C)CC(=O)N([C@@H]2CC(C)(C)Oc3ccc(C(=O)N[C@@H]4c5ccccc5OC(C)(C)[C@H]4O)cc32)C(=N)N1 [Example 47A, (R)-N-((3S,4R)-3-hydroxy-2,2-dimethylchroman-4-yl)-4-(2-imino-4,4-dimethyl-6-oxotetrahydropyrimidin-1(2H)-yl)-2,2-dimethylchromane-6-carboxamide] | 4.7
CCC1(CC)CC(=O)N(C2CC(C(=O)N(C)C)Oc3ccc(C(=O)N[C@H]4CC(C)(C)Oc5ccccc54)cc32)C(=N)N1 (stereo partly drawn) [Example 302, 4-(4,4-diethyl-2-imino-6-oxo-hexahydropyrimidin-1-yl)-N6-[(4S)-2,2-dimethylchroman-4-yl]-N2,N2-dimethyl-chromane-2,6-dicarboxamide] | 1.7
CCC1(CC)CC(=O)N([C@H]2c3cc(C(=O)N[C@@H]4c5ccccc5C[C@H]4O)ccc3O[C@@]2(C)COC)C(=N)N1 [Example 75A, (2R,3S)-3-(4,4-diethyl-2-imino-6-oxotetrahydropyrimidin-1(2H)-yl)-N-((1R,2R)-2-hydroxy-2,3-dihydro-1H-inden-1-yl)-2-(methoxymethyl)-2-methyl-2,3-dihydrobenzofuran-5-carboxamide] | 0.4
CC1(C)CC(=O)N(C2CCS(=O)(=O)c3ccc(C(=O)N[C@@H]4c5ccccc5C[C@@]4(C)O)cc32)C(=N)N1 (stereo partly drawn) [Example 188, N-[(1R,2R)-2-hydroxy-2-methyl-indan-1-yl]-4-(2-imino-4,4-dimethyl-6-oxo-hexahydropyrimidin-1-yl)-1,1-dioxo-3,4-dihydro-2H-thiochromene-6-carboxamide] | 203
CC[C@]1(C)CC(=O)N([C@@H]2C[C@@H](C)c3ccc(C(=O)N[C@@H]4c5ccccc5OC(C)(C)[C@H]4O)cc32)C(=N)N1 [Example 171, (1R,3R)-3-[(4R)-4-ethyl-2-imino-4-methyl-6-oxo-hexahydropyrimidin-1-yl]-N-[(3S,4R)-3-hydroxy-2,2-dimethyl-chroman-4-yl]-1-methyl-indane-5-carboxamide] | 0.7
CCC1(CC)CC(=O)N([C@@H]2C[C@@H](CCCCCCN)Oc3ccc(C(=O)N[C@H]4CC(C)(C)Oc5ccccc54)cc32)C(=N)N1 [Example 308, (2R,4R)-2-(6-aminohexyl)-4-(4,4-diethyl-2-imino-6-oxo-hexahydropyrimidin-1-yl)-N-[(4S)-2,2-dimethylchroman-4-yl]chromane-6-carboxamide] | 40.5
CC(C)[C@]1(C)CC(=O)N([C@@H]2CC(C)(C)Oc3ccc(C(=O)N[C@H]4CCOc5ccccc54)cc32)C(=N)N1 [Example 37A, (R)-N-((S)-chroman-4-yl)-4-((S)-2-imino-4-isopropyl-4-methyl-6-oxotetrahydropyrimidin-1(2H)-yl)-2,2-dimethylchromane-6-carboxamide] | 74.4
CCC1(CC)CC(=O)N([C@@H]2CCOc3ccc(C(=O)N[C@@H]4c5ccccc5OC[C@H]4OC)cc32)C(=N)N1 [Example 173, (4R)-4-(4,4-diethyl-2-imino-6-oxo-hexahydropyrimidin-1-yl)-N-[(3S,4R)-3-methoxychroman-4-yl]chromane-6-carboxamide] | 2.8
CCC1(CC)C[C@@H](N2C(=N)NC(C)(C)CC2=O)c2cc(C(=O)N[C@@H]3c4cc(F)ccc4OC(C)(C)[C@H]3O)ccc2O1 [Example 59B, (R)-2,2-diethyl-N-((3S,4R)-6-fluoro-3-hydroxy-2,2-dimethylchroman-4-yl)-4-(2-imino-4,4-dimethyl-6-oxotetrahydropyrimidin-1(2H)-yl)chromane-6-carboxamide] | 1.6
CCC1(CC)CC(=O)N([C@@H]2CCOc3ccc(C(=O)N4Cc5ccccc5C4)cc32)C(=N)N1 [Example 66A, (R)-6,6-diethyl-2-imino-3-(6-(isoindoline-2-carbonyl)chroman-4-yl)tetrahydropyrimidin-4(1H)-one] | 76
CCC1(CC)CC(=O)N([C@@H]2CCc3ccc(C(=O)N[C@@H]4c5ccccc5OC(C)(C)[C@H]4O)cc32)C(=N)N1 [Example 159, (3R)-3-(4,4-diethyl-2-imino-6-oxo-hexahydropyrimidin-1-yl)-N-[(3S,4R)-3-hydroxy-2,2-dimethyl-chroman-4-yl]indane-5-carboxamide] | 0.5
CC1(C)CC(=O)N([C@@H]2CC(C)(C)Oc3ccc(C(=O)N[C@@H]4c5ccccc5CC4(C)O)cc32)C(=N)N1 (single isomer, unassigned) [Example 54A] | 190
CCC1(CC)CC(=O)N([C@@H]2CCOc3ccc(C(=O)NC(c4ccccc4)c4ccccc4)cc32)C(=N)N1 [Example 194, (4R)-N-benzhydryl-4-(4,4-diethyl-2-imino-6-oxo-hexahydropyrimidin-1-yl)chromane-6-carboxamide] | 0.9
CCC1(CC)CC(=O)N([C@H]2c3cc(C(=O)N[C@@H]4c5ccccc5OC[C@@]4(C)O)ccc3OC[C@H]2COC)C(=N)N1 [Example 287, (3R,4R)-4-(4,4-diethyl-2-imino-6-oxo-hexahydropyrimidin-1-yl)-N-[(3S,4R)-3-hydroxy-3-methyl-chroman-4-yl]-3-(methoxymethyl)chromane-6-carboxamide] | 1.9
